Data published in patent US8802597B2, “Herbicidal pyrimidines” (E I du Pont de Nemours and Company, priority 2003, dated 2014).

Legend:
Assay type in all cases: in vivo
[1] = tested on: Surinam grass (Brachiaria decumbens); assay: Test B pre/postemergence
Source text: (§1) Seeds selected from barnyardgrass (Echinochloa crus-galli), Surinam grass (Brachiaria decumbens), cocklebur (Xanthium strumarium), corn (Zea mays), crabgrass (Digitaria sanguinalis), giant foxtail (Setaria faberii), lambsquarters (Chenopodium album), morningglory (Ipomoea coccinea), pigweed (Amaranthus retroflexus), velvetleaf (Abutilon theophrasti), and wheat (Triticum aestivum) were planted and treated preemergence with test chemicals formulated in a non-phytotoxic solvent mixture which included a surfactant.
(§2) At the same time, plants selected from these crop and weed species and also blackgrass (Alopecurus myosuroides) and wild oat (Avena fatua) were treated with postemergence applications of test chemicals formulated in the same manner. Plants ranged in height from 2 to 18 cm (1- to 4-leaf stage) for postemergence treatments. Plant species in the flooded paddy test consisted of rice (Oryza sativa), umbrella sedge (Cyperus difformis), duck salad (Heteranthera limosa) and barnyardgrass (Echinochloa crus-galli) grown to the 2-leaf stage for testing. Treated plants and controls were maintained in a greenhouse for 13 to 15 days, after which time all species were compared to controls and visually evaluated. Plant response ratings, summarized in Table B, are based on a scale of 0 to 100 where 0 is no effect and 100 is complete control. A dash (-) response means no test result.

[2] = tested on: barnyardgrass (Echinochloa crus-galli); assay: Test B pre/postemergence
Source text: as §1, §2

[3] = tested on: cocklebur (Xanthium strumarium); assay: Test B pre/postemergence
Source text: as §1, §2

corn (Zea mays) = assay: Test B pre/postemergence
Source text: as §1, §2

[4] = tested on: crabgrass (Digitaria sanguinalis); assay: Test B pre/postemergence
Source text: as §1, §2

[5] = tested on: giant foxtail (Setaria faberii); assay: Test B pre/postemergence
Source text: as §1, §2

[6] = tested on: lambsquarters (Chenopodium album); assay: Test B pre/postemergence; conditions: Postemergence; for Lambsquarters plant response rating: 125 g ai/ha, scale 0 to 100 (0 no effect, 100 complete control); for Plant response rating, Lambsquarters: 500 g ai/ha, scale 0 to 100
Source text: as §1, §2

[7] = tested on: morningglory (Ipomoea coccinea); assay: Test B pre/postemergence
Source text: as §1, §2

[8] = tested on: pigweed (Amaranthus retroflexus); assay: Test B pre/postemergence
Source text: as §1, §2

[9] = tested on: velvetleaf (Abutilon theophrasti); assay: Test B pre/postemergence
Source text: as §1, §2

[10] = tested on: wheat (Triticum aestivum); assay: Test B pre/postemergence
Source text: as §1, §2

[11] = tested on: blackgrass (Alopecurus myosuroides); assay: Test B postemergence; conditions: for Blackgrass plant response rating: 125 g ai/ha, scale 0 to 100 (0 no effect, 100 complete control); for Plant response rating, Blackgrass: 500 g ai/ha, scale 0 to 100
Source text: as §1, §2

wild oat (Avena fatua) = assay: Test B postemergence; conditions: for Oat, Wild plant response rating: 125 g ai/ha, scale 0 to 100 (0 no effect, 100 complete control); for Plant response rating, Oat, Wild: 500 g ai/ha, scale 0 to 100
Source text: as §1, §2

[12] = Postemergence, 125 g ai/ha, scale 0 to 100 (0 no effect, 100 complete control)
[13] = Postemergence, 500 g ai/ha, scale 0 to 100
[14] = Preemergence, 125 g ai/ha, scale 0 to 100 (0 no effect, 100 complete control)
[15] = Preemergence, 500 g ai/ha, scale 0 to 100 (0 no effect, 100 complete control)

CCOC(=O)c1nc(C2CC2)nc(NOCC(=O)O)c1Br [Compound 125]
Surinam Grass plant response rating [1, 12]: 0
Plant response rating, Surinam Grass [1, 13]: 10
Plant response rating, Surinam Grass [1, 14]: 0
Plant response rating, Surinam Grass [1, 15]: 0
Barnyardgrass plant response rating [2, 12]: 0
Plant response rating, Barnyardgrass [2, 13]: 70
Plant response rating, Barnyardgrass [2, 14]: 0
Cocklebur plant response rating [3, 12]: 40
Plant response rating, Cocklebur [3, 13]: 60
Plant response rating, Cocklebur [3, 14]: 30
Plant response rating, Cocklebur [3, 15]: 90
Corn plant response rating (corn (Zea mays); [12]): 0
Plant response rating, Corn (corn (Zea mays); [13]): 0
Plant response rating, Corn (corn (Zea mays); [14]): 0
Plant response rating, Corn (corn (Zea mays); [15]): 0
Crabgrass plant response rating [4, 12]: 20
Plant response rating, Crabgrass [4, 13]: 30
Plant response rating, Crabgrass [4, 14]: 0
Plant response rating, Crabgrass [4, 15]: 100
Foxtail, Giant plant response rating [5, 12]: 0
Plant response rating, Foxtail, Giant [5, 13]: 40
Plant response rating, Foxtail, Giant [5, 14]: 0
Plant response rating, Foxtail, Giant [5, 15]: 0
Lambsquarters plant response rating [6]: 60
Plant response rating, Lambsquarters [6]: 70
Morningglory plant response rating [7, 12]: 70
Plant response rating, Morningglory [7, 13]: 90
Plant response rating, Morningglory [7, 14]: 30
Plant response rating, Morningglory [7, 15]: 100
Pigweed plant response rating [8, 12]: 60
Plant response rating, Pigweed [8, 13]: 60
Plant response rating, Pigweed [8, 14]: 30
Plant response rating, Pigweed [8, 15]: 90
Velvetleaf plant response rating [9, 12]: 0
Plant response rating, Velvetleaf [9, 13]: 50
Plant response rating, Velvetleaf [9, 14]: 10
Plant response rating, Velvetleaf [9, 15]: 90
Wheat plant response rating [10, 12]: 0
Plant response rating, Wheat [10, 13]: 0
Plant response rating, Wheat [10, 14]: 0
Plant response rating, Wheat [10, 15]: 0
Blackgrass plant response rating [11]: 0
Plant response rating, Blackgrass [11]: 20
Oat, Wild plant response rating (wild oat (Avena fatua)): 0
Plant response rating, Oat, Wild (wild oat (Avena fatua)): 20

CCOC(=O)c1nc(C2CC2)nc(NNC(C)=O)c1Br [Compound 126]
Surinam Grass plant response rating [1, 12]: 0
Plant response rating, Surinam Grass [1, 13]: 70
Plant response rating, Surinam Grass [1, 14]: 0
Plant response rating, Surinam Grass [1, 15]: 20
Barnyardgrass plant response rating [2, 12]: 0
Plant response rating, Barnyardgrass [2, 13]: 0
Plant response rating, Barnyardgrass [2, 14]: 0
Plant response rating, Barnyardgrass [2, 15]: 0
Cocklebur plant response rating [3, 12]: 0
Plant response rating, Cocklebur [3, 13]: 0
Plant response rating, Cocklebur [3, 14]: 0
Plant response rating, Cocklebur [3, 15]: 90
Corn plant response rating (corn (Zea mays); [12]): 0
Plant response rating, Corn (corn (Zea mays); [13]): 10
Plant response rating, Corn (corn (Zea mays); [14]): 0
Plant response rating, Corn (corn (Zea mays); [15]): 0
Crabgrass plant response rating [4, 12]: 0
Plant response rating, Crabgrass [4, 13]: 20
Plant response rating, Crabgrass [4, 14]: 80
Plant response rating, Crabgrass [4, 15]: 100
Foxtail, Giant plant response rating [5, 12]: 0
Plant response rating, Foxtail, Giant [5, 13]: 0
Plant response rating, Foxtail, Giant [5, 14]: 0
Plant response rating, Foxtail, Giant [5, 15]: 0
Lambsquarters plant response rating [6]: 30
Plant response rating, Lambsquarters [6]: 40
Morningglory plant response rating [7, 12]: 30
Plant response rating, Morningglory [7, 13]: 60
Plant response rating, Morningglory [7, 14]: 0
Plant response rating, Morningglory [7, 15]: 70
Pigweed plant response rating [8, 12]: 0
Plant response rating, Pigweed [8, 13]: 30
Plant response rating, Pigweed [8, 14]: 20
Plant response rating, Pigweed [8, 15]: 80
Velvetleaf plant response rating [9, 12]: 10
Plant response rating, Velvetleaf [9, 13]: 20
Plant response rating, Velvetleaf [9, 14]: 10
Plant response rating, Velvetleaf [9, 15]: 20
Wheat plant response rating [10, 12]: 0
Plant response rating, Wheat [10, 13]: 0
Plant response rating, Wheat [10, 14]: 0
Plant response rating, Wheat [10, 15]: 0
Blackgrass plant response rating [11]: 0
Plant response rating, Blackgrass [11]: 0
Oat, Wild plant response rating (wild oat (Avena fatua)): 0
Plant response rating, Oat, Wild (wild oat (Avena fatua)): 20
